Results published in paper PMC8222176 (Acta biomaterialia, 2021).

How the values were obtained:
MelBSt [1] = target: T1, MelBSt (Salmonella typhimurium, UniProt P30878); conditions: read-out: Apparent Kd, in the presence of Na+; cited from earlier work
MelBEc [2] = target: T2, MelBEc (Escherichia coli, UniProt P02921); conditions: read-out: Apparent Kd, in the presence of Na+; cited from earlier work
[3] = type: physicochemical; conditions: in water at room temperature; DPH dye
[4] = Hydrodynamic diameter of detergent self-assemblies by dynamic light scattering; type: physicochemical; conditions: 1.0 wt% detergent, water, room temperature, n = 4
[5] = Water-solubility of detergents; type: physicochemical; conditions: in water
LeuT = LeuT stability assay; type: biochemical, Aquifex aeolicus; conditions: detergent at CMC + 0.04 wt%, 13-day incubation, room temperature
MelBSt [6] = target: T1, MelBSt; type: biochemical; conditions: MelBSt extracted with 1.0 wt% detergent
MelBEc [7] = target: T2, MelBEc; test: MelB Trp→D2G FRET assay; type: biochemical, E. coli; conditions: MelBEc extracted with 1.0 wt% detergent
μ-opioid receptor (MOR) = μ-opioid receptor (MOR) (Mus musculus, UniProt P42866); test: MOR stability assay; type: biochemical; conditions: 0.1 wt% detergent, 3-day incubation at room temperature
μ-opioid receptor (MOR), sequence (P42866 whole entry): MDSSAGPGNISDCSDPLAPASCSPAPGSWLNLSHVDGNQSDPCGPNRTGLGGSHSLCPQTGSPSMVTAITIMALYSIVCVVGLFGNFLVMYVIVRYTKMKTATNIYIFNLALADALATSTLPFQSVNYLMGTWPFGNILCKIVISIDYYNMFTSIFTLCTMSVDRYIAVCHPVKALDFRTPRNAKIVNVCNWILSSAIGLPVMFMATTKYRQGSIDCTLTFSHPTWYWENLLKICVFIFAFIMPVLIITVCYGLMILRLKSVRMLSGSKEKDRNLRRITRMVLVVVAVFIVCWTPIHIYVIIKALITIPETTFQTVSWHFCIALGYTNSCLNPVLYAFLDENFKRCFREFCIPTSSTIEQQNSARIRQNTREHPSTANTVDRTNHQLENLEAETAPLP

MelBSt [8] = target: T1, MelBSt; conditions: 1.5 wt% detergent, further 90 min at 55 °C

T2 sequence (P02921 whole entry): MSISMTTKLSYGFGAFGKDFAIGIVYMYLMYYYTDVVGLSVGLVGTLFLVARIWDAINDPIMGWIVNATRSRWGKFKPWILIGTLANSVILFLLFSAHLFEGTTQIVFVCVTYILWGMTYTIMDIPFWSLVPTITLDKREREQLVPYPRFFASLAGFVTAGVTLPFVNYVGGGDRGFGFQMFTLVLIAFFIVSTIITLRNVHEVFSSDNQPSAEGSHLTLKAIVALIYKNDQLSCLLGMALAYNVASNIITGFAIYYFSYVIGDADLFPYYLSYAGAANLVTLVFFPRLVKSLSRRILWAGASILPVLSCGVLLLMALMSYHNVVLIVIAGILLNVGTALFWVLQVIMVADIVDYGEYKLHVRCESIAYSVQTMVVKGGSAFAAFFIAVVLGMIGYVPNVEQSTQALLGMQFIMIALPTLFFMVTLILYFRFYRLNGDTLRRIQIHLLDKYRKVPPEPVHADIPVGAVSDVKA
T1 sequence (P30878 whole entry): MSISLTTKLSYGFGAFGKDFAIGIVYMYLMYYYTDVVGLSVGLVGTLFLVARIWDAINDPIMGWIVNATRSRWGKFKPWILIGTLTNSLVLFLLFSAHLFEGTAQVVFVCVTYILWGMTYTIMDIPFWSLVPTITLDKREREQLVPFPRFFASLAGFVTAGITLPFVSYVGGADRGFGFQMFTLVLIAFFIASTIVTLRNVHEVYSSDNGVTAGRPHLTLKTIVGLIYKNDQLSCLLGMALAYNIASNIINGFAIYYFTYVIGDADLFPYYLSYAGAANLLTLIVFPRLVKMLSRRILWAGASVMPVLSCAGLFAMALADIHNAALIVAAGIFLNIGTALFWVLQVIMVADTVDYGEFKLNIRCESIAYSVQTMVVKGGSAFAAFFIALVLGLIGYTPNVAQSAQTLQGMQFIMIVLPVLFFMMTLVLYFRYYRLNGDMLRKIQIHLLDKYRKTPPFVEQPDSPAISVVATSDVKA

| SMILES | Kd (MelBSt [1]) [µM] | Kd (MelBEc [2]) [µM] | CAC (critical aggregation concentration) [3] [µM] | Dh (hydrodynamic diameter of aggregates) [4] [nm] | Solubility (water-solubility) [5] [wt%] | LeuT long-term stability ([3H]-Leu binding ability) (LeuT) | fluorescence response to D2G and melibiose (MelB function) (MelBSt [6]) | fluorescence response to D2G and melibiose (MelB function) (MelBEc [7]) | MOR long-term stability ([3H]-DPN binding ability) (μ-opioid receptor (MOR)) | soluble MelBSt after incubation (MelBSt [8]) |
| --- | --- | --- | --- | --- | --- | --- | --- | --- | --- | --- |
| OC[C@H]1O[C@H](OCC2O[C@@H](O)[C@H](O)[C@@H](O)[C@@H]2O)[C@H](O)[C@@H](O)[C@H]1O (stereo partly drawn) [melibiose] | 1070 | 490 |  |  |  |  |  |  |  |  |
| CCCCCCCCCCCCO[C@@H]1O[C@H](CO)[C@@H](O[C@H]2O[C@H](CO)[C@@H](O)[C@H](O)[C@H]2O)[C@H](O)[C@H]1O [DDM, n-dodecyl-β-D-maltoside] |  |  | 170 | 6.8 ± 0.6 | ~10 | steady decrease in the substrate binding ability over time | responsive to the successive addition of D^2G and melibiose | no response was observed | complete loss in ligand binding ability after a 1-day incubation | little DDM-solubilized MelBSt detectable |
| CN(C)c1cccc2c(S(=O)(=O)NCCS[C@@H]3O[C@H](CO)[C@H](O)[C@H](O)[C@H]3O)cccc12 [D^2G, 2′-(N-Dansyl)aminoalkyl-1-thio-β-D-galactopyranoside] | 10.3 | 3.1 |  |  |  |  |  |  |  |  |
